Patent publication US6521635B1, “Inhibition of MXR transport by acridine derivatives” (priority 2000, dated 2003)

Experiments:
[1] = In vitro cytotoxicity assay (sulforhodamine B staining); type: cell-based, human; conditions: human
Method: (§1) Reversal of resistance was determined in cytotoxicity assays using the sulforhodamine staining (Skehan et al. (1990) J. Natl. […] Briefly, cells were harvested and seeded at a density of 2000 cells/well for the colon cancer lines and 4000 cells/well for the breast cancer cell lines in flat-bottom 96-well plates. The cells were incubated for 24 h at 37° C. to allow attachment prior to addition of the drugs. […] Each concentration was tested in triplicate and the controls were done in replicates of eight. Results are representative of from three to six experiments. […] After incubation, the cells were fixed in TCA and stained with sulforhodamine B (SRB) solution (0.4% wt/vol in 1% acetic acid) (Sigma Chemical, St Louis, Mo.). Optical densities were read on a Bio-Rad plate reader (Hercules, Calif.) at an absorbance of 540 nm.

MCF-7 parental cells [2] = assay: as above; type: cell-based, human; conditions: Homo sapiens, MCF7, read-out: IC50 for GF120918 alone; MCF-7 parental cells
Method: as §1

S1 parental cells = assay: as above; type: cell-based, human; conditions: Homo sapiens, read-out: IC50 for GF120918 alone; S1 parental cells
Method: as §1

[3] = tested on: S1-B1-20 Pgp-overexpressing cells; assay: as above; type: cell-based, human; conditions: GF120918 at 1 μM, Pgp-expressing S1-B1-20 cells
Method: as §1

[4] = tested on: S1-M1-80 cells expressing MXR; assay: as above; type: cell-based, human; design: sensitization to topotecan: dose or concentration left out as unconfirmed
Method: as §1

[5] = target: Pgp (Pgp-overexpressing S1-B1-20 cells) (Homo sapiens, UniProt P08183)
Method: (§2) The rhodamine and calcein efflux assays were performed as previously described with minor modifications (Lee et al. (1994) Mol. Pharmacol. 46: 627-638; Versantvoort et al. (1995) Int. J. Cancer 63: 855-862.) Suspensions of logarithmic phase cells were obtained from tissue culture flasks by trypsinization and transferred into round-bottom 96-well plates. […] After the efflux period, the cells were washed with DPBS and placed on ice. A FACSort flow cytometer (Becton Dickinson, San Jose, Calif.) with a 488-nm argon laser was used to analyze the samples. Rhodamine 123 or calcein fluorescence was collected after a 530 nm bandpass filter. A minimum of 10,000 events was collected per sample and the samples were gated on forward scatter versus side scatter to exclude clumps and debris; dead cells were excluded based on propidium iodide staining.
To provide confirmation, rhodamine efflux assays were performed. […] After an accumulation and efflux period, rhodamine fluorescence was quantitated by flow cytometric analysis. The results are depicted in FIG. 2. […] PSC 833, a cyclosporin-D analog, was used as a positive control for Pgp antagonism.

MXR (S1-M1-80 cells) = target: T1, MXR (S1-M1-80 cells) (Homo sapiens, UniProt Q9UNQ0, R482G); assay: Rhodamine efflux assay (flow cytometry); type: cell-based; conditions: S1-M1-80 cells
T1 construct: express high levels of a mitoxantrone transporter (Miyake et al. (1999) Cancer Res.59: 8-13); endogenous in cells; host or cells: S1-M1-80 (mitoxantrone-selected subline of S1 colon carcinoma cells)
T1 sequence (Q9UNQ0 1-655 R482G): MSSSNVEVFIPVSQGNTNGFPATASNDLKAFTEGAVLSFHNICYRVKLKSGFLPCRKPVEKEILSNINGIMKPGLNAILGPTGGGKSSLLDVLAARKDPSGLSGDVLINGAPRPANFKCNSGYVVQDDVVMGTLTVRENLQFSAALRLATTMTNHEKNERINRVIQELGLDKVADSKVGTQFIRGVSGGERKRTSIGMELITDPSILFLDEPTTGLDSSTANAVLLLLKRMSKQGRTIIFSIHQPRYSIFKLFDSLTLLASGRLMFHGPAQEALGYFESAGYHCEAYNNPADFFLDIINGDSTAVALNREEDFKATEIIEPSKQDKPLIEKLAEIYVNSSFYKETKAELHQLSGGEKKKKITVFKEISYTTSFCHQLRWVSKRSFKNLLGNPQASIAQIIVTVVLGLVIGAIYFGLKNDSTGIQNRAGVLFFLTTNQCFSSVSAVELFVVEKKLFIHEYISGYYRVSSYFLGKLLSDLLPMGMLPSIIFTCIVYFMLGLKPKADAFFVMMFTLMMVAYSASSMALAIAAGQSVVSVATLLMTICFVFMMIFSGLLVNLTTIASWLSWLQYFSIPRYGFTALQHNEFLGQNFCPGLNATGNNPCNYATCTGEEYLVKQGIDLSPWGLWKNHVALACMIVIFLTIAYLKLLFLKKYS
Method: (§3) To provide confirmation, rhodamine efflux assays were performed. […] The results are depicted in FIG. 2.

MCF-7 parental cells [6] = assay: Rhodamine efflux assay (flow cytometry); type: cell-based, human
Method: as §3

MRP (MCF-7/VP cells) = target: T2, MRP (MCF-7/VP cells) (Homo sapiens, UniProt P33527); assay: Calcein efflux assay (FACS); type: cell-based; conditions: at 25 μM, MCF-7/VP cells (data not shown)
T2 construct: Calcein is readily effluxed in the MRP-overexpressing MCF-7/VP cells; endogenous in cells; host or cells: MCF-7/VP (maintained in 4 uM VP-16; provided by Dr. Ken Cowan)
Method: as §2
(§4) Calcein AM can be used to detect both Pgp and MRP-mediated efflux. Calcein permeates the cell in neutral form as an acetomethoxyester, calcein AM. Esterase activity cleaves the AM group leaving calcein as a fluorescent organic anion.

Pgp (S1-B1-20 cells) = target: T3, Pgp (S1-B1-20 cells) (Homo sapiens, UniProt P08183); assay: Calcein AM efflux assay (FACS); type: cell-based
T3 construct: The S1-B1-20 cells overexpress Pgp; endogenous in cells; host or cells: S1-B1-20 (Pgp-overexpressing subline of S1 colon carcinoma cells)
Method: as §2, §4

[7] = tested on: MXR-expressing S1-M1-80 cells; assay: Confocal microscopy of mitoxantrone / rhodamine 123 accumulation; type: cell-based, human
Method: (§5) Cells were seeded in 35 mm glass-bottom microwell dishes (MatTek Corporation, Ashland, Mass.) at a density of 4000 cells/dish and incubated for 48 hours in phenol red-free IMEM supplemented with 10% fetal calf serum. […] The cells were analyzed using a Zeiss LSM 410 confocal laser scanning microscope equipped with a […] argon laser exciting mitoxantrone at 568 nm. Emitted light passed through a 590 nm long-pass filter.

[8] = tested on: P-glycoprotein overexpressing S1-B1-20 cells; assay: as above; type: cell-based, human
Method: as §5

T3 sequence (P08183 whole entry): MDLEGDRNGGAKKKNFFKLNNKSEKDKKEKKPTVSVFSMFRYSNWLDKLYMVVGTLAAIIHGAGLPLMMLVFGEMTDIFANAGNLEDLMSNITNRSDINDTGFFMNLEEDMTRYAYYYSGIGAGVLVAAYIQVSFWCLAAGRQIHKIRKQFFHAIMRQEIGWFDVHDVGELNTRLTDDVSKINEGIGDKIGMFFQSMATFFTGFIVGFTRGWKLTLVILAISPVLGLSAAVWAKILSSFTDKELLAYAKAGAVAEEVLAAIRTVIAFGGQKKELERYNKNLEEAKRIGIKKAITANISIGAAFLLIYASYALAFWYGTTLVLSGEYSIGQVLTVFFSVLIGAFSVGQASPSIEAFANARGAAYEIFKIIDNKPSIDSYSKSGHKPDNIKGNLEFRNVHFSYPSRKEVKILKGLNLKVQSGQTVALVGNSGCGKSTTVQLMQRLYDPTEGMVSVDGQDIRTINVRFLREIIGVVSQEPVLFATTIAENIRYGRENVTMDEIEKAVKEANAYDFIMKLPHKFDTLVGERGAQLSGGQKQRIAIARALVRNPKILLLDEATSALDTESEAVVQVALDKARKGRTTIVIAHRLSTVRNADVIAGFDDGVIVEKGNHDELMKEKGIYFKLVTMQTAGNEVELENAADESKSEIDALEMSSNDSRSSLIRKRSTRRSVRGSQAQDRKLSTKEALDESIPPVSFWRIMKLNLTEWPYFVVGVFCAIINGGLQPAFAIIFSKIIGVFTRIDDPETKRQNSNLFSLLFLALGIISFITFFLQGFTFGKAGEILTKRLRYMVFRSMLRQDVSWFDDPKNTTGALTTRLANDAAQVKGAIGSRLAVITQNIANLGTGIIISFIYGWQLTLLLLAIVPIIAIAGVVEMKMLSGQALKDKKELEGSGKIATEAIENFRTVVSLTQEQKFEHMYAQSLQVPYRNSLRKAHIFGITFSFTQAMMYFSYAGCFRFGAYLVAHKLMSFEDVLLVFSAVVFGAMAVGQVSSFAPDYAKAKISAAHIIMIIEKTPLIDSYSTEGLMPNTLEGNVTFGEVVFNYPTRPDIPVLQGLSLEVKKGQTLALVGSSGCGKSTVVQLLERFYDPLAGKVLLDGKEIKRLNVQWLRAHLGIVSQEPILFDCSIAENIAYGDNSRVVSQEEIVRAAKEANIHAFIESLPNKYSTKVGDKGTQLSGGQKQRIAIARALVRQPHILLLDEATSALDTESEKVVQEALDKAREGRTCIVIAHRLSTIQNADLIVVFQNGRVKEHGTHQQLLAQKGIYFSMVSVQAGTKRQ
Chain of Pgp (Pgp-overexpressing S1-B1-20 cells) (P08183 whole entry): as above
T2 sequence (P33527 whole entry): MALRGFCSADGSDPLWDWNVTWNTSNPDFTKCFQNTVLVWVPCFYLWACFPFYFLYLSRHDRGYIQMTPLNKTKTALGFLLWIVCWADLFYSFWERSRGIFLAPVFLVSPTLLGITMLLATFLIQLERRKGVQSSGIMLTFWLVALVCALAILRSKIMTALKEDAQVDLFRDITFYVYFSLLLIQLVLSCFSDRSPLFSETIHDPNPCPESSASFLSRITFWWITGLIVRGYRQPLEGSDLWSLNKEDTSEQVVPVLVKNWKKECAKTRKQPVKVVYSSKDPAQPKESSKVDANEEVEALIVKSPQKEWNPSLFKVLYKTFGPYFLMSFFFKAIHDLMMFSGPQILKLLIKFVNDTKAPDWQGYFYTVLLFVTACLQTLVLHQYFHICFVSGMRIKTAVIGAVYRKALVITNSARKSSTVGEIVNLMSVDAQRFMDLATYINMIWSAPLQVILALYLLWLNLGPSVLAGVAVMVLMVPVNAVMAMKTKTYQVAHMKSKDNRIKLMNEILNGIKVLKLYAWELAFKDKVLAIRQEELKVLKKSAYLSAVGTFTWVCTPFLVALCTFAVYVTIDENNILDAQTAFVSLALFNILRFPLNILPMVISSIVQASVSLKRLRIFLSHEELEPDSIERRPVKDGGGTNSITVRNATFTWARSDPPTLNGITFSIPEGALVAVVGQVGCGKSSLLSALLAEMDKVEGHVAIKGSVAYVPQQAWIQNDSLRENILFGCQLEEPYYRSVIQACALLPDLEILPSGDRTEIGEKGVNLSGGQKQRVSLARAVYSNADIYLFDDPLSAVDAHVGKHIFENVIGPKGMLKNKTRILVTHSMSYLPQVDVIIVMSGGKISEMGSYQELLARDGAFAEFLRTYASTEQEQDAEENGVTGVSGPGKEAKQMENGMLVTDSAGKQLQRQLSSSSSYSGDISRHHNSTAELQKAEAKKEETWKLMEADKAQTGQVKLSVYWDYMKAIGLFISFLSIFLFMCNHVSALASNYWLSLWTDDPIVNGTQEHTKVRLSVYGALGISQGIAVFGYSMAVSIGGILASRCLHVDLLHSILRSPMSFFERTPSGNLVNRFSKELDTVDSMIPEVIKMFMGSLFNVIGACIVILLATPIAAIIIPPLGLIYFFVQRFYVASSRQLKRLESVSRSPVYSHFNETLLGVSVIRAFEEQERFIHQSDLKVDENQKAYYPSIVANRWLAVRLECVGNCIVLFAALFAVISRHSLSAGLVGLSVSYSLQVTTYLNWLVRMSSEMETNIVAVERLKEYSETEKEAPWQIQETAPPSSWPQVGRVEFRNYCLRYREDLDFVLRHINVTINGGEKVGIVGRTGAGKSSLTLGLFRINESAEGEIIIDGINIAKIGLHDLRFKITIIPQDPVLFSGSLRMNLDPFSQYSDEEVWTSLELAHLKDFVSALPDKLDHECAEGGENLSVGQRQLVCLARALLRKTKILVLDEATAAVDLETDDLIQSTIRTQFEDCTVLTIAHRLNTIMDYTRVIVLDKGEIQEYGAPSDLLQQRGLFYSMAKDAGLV

- concentration giving complete inhibition of rhodamine efflux [5]: 250 nM
- lowest concentrations at which rhodamine 123 efflux was decreased [5]: 25 to 50 nM
- concentration at which an effect on rhodamine efflux was observed (MXR (S1-M1-80 cells)): 1000 nM
- reversal of MRP-mediated calcein efflux (MRP (MCF-7/VP cells)): only slight reversal
- block of calcein AM efflux (Pgp (S1-B1-20 cells); Pgp-expressing S1-B1-20 cells): able to block efflux
- type of inhibition of Pgp (Pgp (S1-B1-20 cells); calcein-AM efflux): non-competitive inhibitor
SMILES: COc1cc2c(cc1OC)CN(CCc1ccc(NC(=O)c3cccc4c(=O)c5cccc(OC)c5[nH]c34)cc1)CC2 [GF120918]
- IC50 at 96 h [1]: 3.6 µM
- IC50 (MCF-7 parental cells [2]): 40 µM
- IC50 (S1 parental cells): 15.2 µM
- sensitization to mitoxantrone [3]: 31 fold
- sensitization to mitoxantrone ([4]; GF120918 at 1 μM, S1-M1-80 cells expressing MXR): 1850 fold
- IC50 ([4]; Homo sapiens, S1-M1-80, read-out: IC50 for GF120918 alone, S1-M1-80 cells): 2.5 µM
- sensitization to topotecan ([4]; S1-M1-80 cells): 23 fold
- effect on rhodamine efflux (MCF-7 parental cells [6]): No effect
- effect on mitoxantrone fluorescence ([7]; 0.4 μM GF120918): less marked
- mitoxantrone level (accumulation, nuclear staining) ([7]; 10 μM and 50 μM GF120918 (data not shown)): full reversal had been achieved
- concentration for full reversal of the rhodamine accumulation defect ([7]; S1-M1-80 cells): 10 µM
- concentration at which the rhodamine 123 accumulation defect was reversed ([7]; S1-M1-80 cells (data not shown)): 2 µM
- rhodamine 123 accumulation ([8]; 0.4 μM GF120918): enhanced
- mitoxantrone fluorescence ([8]; 0.4 μM GF120918 during mitoxantrone incubation (data not shown)): level comparable to that of the parental line
